Test results published in patent US20100120690A1, “Polypeptides Having Antimicrobial Activity and Polynucleotides Encoding Same” (Novozymes Adenium Biotech A/S, priority 2005, published 2010).

Assays:
S. aureus = assay: Minimal Inhibitory Concentration, NCCLS guidelines (Example 4); type: cell-based, Staphylococcus aureus; conditions: purified peptide
Method: (§1) The Minimal Inhibitory Concentration (MIC, micrograms/mL) was determined to test for their antimicrobial activity following the NCCLS guidelines (Clinical and Laboratory Standards Institute; formerly known as National Committee for Clinical and Laboratory Standards).

S. epidermis = assay: Minimal Effective Concentration (MEC) assay; type: cell-based, Staphylococcus epidermidis
Method: (§2) Three antimicrobial polypeptides, which are variants of SEQ ID NO: 1, were tested for antimicrobial activity. A Minimal Effective Concentration assay (MEC, expressed as micrograms/mL) against different microorganisms was performed using the three plectasin mutants, Y40YR, N17R and Y25R following the protocol described in the book of Methods in Molecular Biology, Vol. 78, Antibacterial peptide protocol William M. Shafer, Human Press.

M. luteus [1] = assay: Minimal Inhibitory Concentration, NCCLS guidelines (Example 4); type: cell-based, Micrococcus luteus; conditions: purified peptide
Method: as §1

M. luteus [2] = assay: Minimal Effective Concentration (MEC) assay; type: cell-based, Micrococcus luteus
Method: as §2

[3] = tested on: Staphylococcus aureus, ATCC 25923; assay: MIC, NCCLS/CLSI guidelines (Example 5), strain B; type: cell-based; conditions: average of two independent experiments
In short: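 Scores express each variant's MIC as a fraction of wild-type plectasin MIC (0: >100%; 1: 80-100%; 2: 50-80%; 3: <50%), averaged over two independent runs. Purified recombinant peptides; MIC by the CLSI (formerly NCCLS) method.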

B. subtilis [4] = assay: Minimal Effective Concentration (MEC) assay; type: cell-based, Bacillus subtilis
Method: as §2

B. subtilis [5] = assay: Minimal Inhibitory Concentration, NCCLS guidelines (Example 4); type: cell-based, Bacillus subtilis; conditions: purified peptide
Method: as §1

[6] = tested on: panel of 6 different strains of Staphylococcus aureus; assay: Average MIC, NCCLS/CLSI guidelines using caMHB (Example 6); type: cell-based; conditions: average over 6 S. aureus strains, duplicate; MIC above 32 counted as 64; read after 18-24 hours at 37° C.
In short: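 MICs were determined by broth dilution per NCCLS/CLSI in caMHB against six S. aureus strains (four MSSA, two MRSA), with peptides at 0.03–32 microgram/mL, read after 18-24 h at 37° C. Each was tested in duplicate and the two results averaged; MICs above 32 micrograms/mL were counted as 64.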

## GFGCNGPWDEDDMQCHNHCKSIKGYKGGYCAKGGFVCKCY (listed as Pseudoplectania nigrella) [wildtype, wildtype plectasin, parent antimicrobial polypeptide, reference compound]
S. aureus
  MIC against S. aureus: 8 micrograms/mL
S. epidermis
  MEC against S. epidermis: 0.98 micrograms/mL
M. luteus [1]
  MIC against M. luteus: 32 micrograms/mL
M. luteus [2]
  MEC against M. luteus: 1.89 micrograms/mL
[3]
  MIC, strain B: (22 μg/mL)
[3]; relative to wildtype Plectasin
  Relative MIC, strain B: 1 (80-100% of Plectasin wildtype MIC)
B. subtilis [4]
  MEC against B. subtilis: 0.09 micrograms/mL
B. subtilis [5]
  MIC against B. subtilis: 1 micrograms/mL
[6]
  Average MIC: 14 micrograms/mL
